Measurements reported in PMC7076352 (Pharmaceutics, 2020).
Where “and” joins values, the source holds several entries; their conditions need not be identical. Equal entries are not always repeated. Where two headings read alike, the source gives them in different places.

Key:
[1] = tested on: CYP3A4; assay: in vitro; conditions: for IC50: microsomes
Procedure: (§1) (OHBUP-[D6]) and 5 nM 4′-hydroxydiclofenac-[^13C6] (OHDIC-[^13C6]) as internal standards (ISs). […]
(§2) standard addition experiments. Each group included four concentration levels. For the PK […]
(§3) The probe compounds, viz. […]
(§4) chosen after incubating all the recruited substrates. In order to assure the linear relationship […]
(§5) The incubation system was also optimized in terms of substrate concentrations. The substrates concentrations of […]

[2] = tested on: CYP3A4; conditions: read-out: Reported Km; probe substrate MID, CYP3A4, literature range ref 9; cited from earlier work
[3] = tested on: CYP450s; assay: In vitro cocktail CYP450 activity assay, isozyme not given; type: in vitro ADME, SD rat
Procedure: (OHBUP-[D6]) and 5 nM 4′-hydroxydiclofenac-[^13C6] (OHDIC-[^13C6]) as internal standards (ISs).

[4] = tested on: CYP2B6; assay: in vitro; conditions: microsomes
Procedure: as §1, §2, §3, §4, §5

[5] = tested on: CYP2C9; assay: in vitro; conditions: microsomes
Procedure: as §1, §2, §3, §4, §5

[6] = tested on: CYP2D6; assay: in vitro; conditions: microsomes
Procedure: as §1, §2, §3, §4, §5

[7] = molecular target: T1, CYP1A2 (Rattus norvegicus, UniProt P04799); assay: In vitro cocktail CYP450 activity assay in rat liver microsomes, CYP1A2 (phenacetin probe)
T1 sequence (P04799 1-513): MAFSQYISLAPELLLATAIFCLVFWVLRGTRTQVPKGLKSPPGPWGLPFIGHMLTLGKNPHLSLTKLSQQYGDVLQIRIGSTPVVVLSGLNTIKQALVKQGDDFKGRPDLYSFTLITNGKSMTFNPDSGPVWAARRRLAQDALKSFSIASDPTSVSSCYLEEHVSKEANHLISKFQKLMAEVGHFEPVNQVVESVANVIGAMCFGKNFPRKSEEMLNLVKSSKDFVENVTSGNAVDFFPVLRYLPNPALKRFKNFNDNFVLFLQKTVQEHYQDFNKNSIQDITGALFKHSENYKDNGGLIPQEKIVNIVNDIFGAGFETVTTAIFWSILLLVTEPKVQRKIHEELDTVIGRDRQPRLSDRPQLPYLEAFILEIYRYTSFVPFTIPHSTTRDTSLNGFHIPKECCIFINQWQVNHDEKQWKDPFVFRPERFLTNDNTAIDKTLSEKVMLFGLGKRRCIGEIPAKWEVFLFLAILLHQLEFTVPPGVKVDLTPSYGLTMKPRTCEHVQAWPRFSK
Procedure: as §1, §2, §3, §4, §5

[8] = tested on: CYP2C19; assay: in vitro; conditions: microsomes
Procedure: as §1, §2, §3, §4, §5

[9] = molecular target: CYP2E1 (Rattus norvegicus, UniProt P05182); conditions: microsomes
Procedure: For the cocktail assay, the activity is expressed as the percentage of activity remaining comparing with that of a control sample containing no inhibitor. […] All the data were described as mean ± standard deviation (SD). Normality assumptions were tested by the Kolmogorov–Smirnov statistic setting p = 0.10 as the limit for rejection of the null hypothesis of normality. If the distribution of the data was normal with equal variances, a two-sided test was performed at the 5% level of significance. The Welch’s correction was then applied when the underlying variances were not equal. When the assumption of normality must be rejected, the Mann-Whitney test, a non-parametric equivalent of the independent-measures t-test, was used.

[10] = molecular target: T1, CYP1A2; conditions: read-out: Reported IC50; positive inhibitor of CYP1A2, literature ref 9, 10,11; cited from earlier work

CYP2E1, sequence (P05182 whole entry): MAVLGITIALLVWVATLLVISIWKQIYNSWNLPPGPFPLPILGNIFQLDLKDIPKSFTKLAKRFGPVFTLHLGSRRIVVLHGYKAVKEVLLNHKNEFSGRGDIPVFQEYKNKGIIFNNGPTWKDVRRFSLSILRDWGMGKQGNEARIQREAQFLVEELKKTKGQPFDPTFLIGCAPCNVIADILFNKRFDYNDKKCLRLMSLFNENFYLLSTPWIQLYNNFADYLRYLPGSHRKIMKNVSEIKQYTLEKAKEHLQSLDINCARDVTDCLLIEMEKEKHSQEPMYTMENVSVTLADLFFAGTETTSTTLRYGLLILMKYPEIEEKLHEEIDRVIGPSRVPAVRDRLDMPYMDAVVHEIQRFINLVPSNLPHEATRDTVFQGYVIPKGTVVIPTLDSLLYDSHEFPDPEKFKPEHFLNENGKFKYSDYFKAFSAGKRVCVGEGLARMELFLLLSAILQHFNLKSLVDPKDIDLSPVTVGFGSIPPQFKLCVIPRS

Row | Compound | Km ([1]; SD, rat, pH 7.4) | Km [2] | IC50 [3] | IC50 [1] | IC50 [4] | IC50 [5] | IC50 [6] | IC50 ([7]; microsomes) | IC50 [8] | IC50 [9] | IC50 ([7]; Tested IC50) | IC50 [10]
1 | Cc1ncc2n1-c1ccc(Cl)cc1C(c1ccccc1F)=NC2 [MID, midazolam, reference compound] | 11 ± 1.51 µM | 1 to 14 µM | – | – | – | – | – | – | – | – | – | –
2 | O=c1c(OC2O[C@H](CO)[C@@H](O)[C@H](O)[C@H]2O)c(-c2ccc(O)cc2)oc2cc(O)c(O)c(O)c12 (some centres unmarked) [A6, 6-hydoxykaempferol-3-O-glucoside] | – | – | ≤ 15 µM | 26.4 ± 1.39 µM | 115 ± 3.04 µM | 55.8 ± 3.4 µM | 19.5 ± 2.83 µM | 52.8 ± 1.93 µM | 53.67 ± 0.22 µM | 40.8 ± 1.65 µM | – | –
3 | O=c1c(O[C@@H]2O[C@H](CO)[C@@H](O)[C@H](O)[C@H]2O)c(-c2ccc(O)cc2)oc2cc(O)c(O[C@@H]3O[C@H](CO)[C@@H](O)[C@H](O)[C@H]3O)c(O)c12 [A13, 6-hydroxykaempferol-3,6-di-O-glucoside] | – | – | ≤ 15 µM | 58.5 ± 0.66 µM | 21 ± 2.31 µM | 93 ± 2.56 µM | 37.1 ± 8.85 µM | 13.3 ± 2.27 µM | 48.9 ± 4.36 µM | 10.2 ± 0.65 µM | – | –
4 | Cc1nc2c([nH]1)c(=O)n(C)c(=O)n2Cc1ccco1 [FUR, furafylline] | – | – | – | – | – | – | – | – | – | – | 0.597 ± 0.0514 µM | 1.3 µM and 1.76 to 13.9 µM
